Results reported in ChEMBL document CHEMBL5120807, “Recent advances in the development of active hybrid molecules in the treatment of cardiovascular diseases” (Bioorg Med Chem, 2022).

Assays:
[1] = molecular target: Cholinesterase (Homo sapiens) (UniProt P06276); test: Inhibition of BuChE (unknown origin) by Ellman method; conditions: concentration not given here
[2] = molecular target: Serine/threonine-protein kinase pim-1 (Homo sapiens, UniProt P11309); test: Inhibition of human PIM1 expressed in bacterial system using histone H1 as substrate incubated for 30 mins by ADP-Glo assay kit method
[3] = molecular target: Dual specificity protein kinase CLK1 (Mus musculus, UniProt P22518); test: Inhibition of mouse recombinant CLK1 expressed in bacterial system using GRSRSRSRSRSR as substrate incubated for 30 mins by ADP-Glo assay kit method
[4] = Antioxidant activity assessed as ABTS radical scavenging activity; assay type: functional
[5] = Antagonist activity at beta1-adrenoceptor (unknown origin) at 1 uM; set-up: species or system Homo sapiens

Chain of Serine/threonine-protein kinase pim-1 (P11309 whole entry): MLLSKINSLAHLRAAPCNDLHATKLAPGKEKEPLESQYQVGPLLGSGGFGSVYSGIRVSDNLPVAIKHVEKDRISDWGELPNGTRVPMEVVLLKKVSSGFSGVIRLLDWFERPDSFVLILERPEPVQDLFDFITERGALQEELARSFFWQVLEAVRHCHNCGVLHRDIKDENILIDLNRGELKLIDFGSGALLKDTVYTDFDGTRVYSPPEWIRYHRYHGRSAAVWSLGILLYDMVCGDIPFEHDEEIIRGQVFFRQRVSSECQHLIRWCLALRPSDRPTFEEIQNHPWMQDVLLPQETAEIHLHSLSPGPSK
Chain of Dual specificity protein kinase CLK1 (P22518 whole entry): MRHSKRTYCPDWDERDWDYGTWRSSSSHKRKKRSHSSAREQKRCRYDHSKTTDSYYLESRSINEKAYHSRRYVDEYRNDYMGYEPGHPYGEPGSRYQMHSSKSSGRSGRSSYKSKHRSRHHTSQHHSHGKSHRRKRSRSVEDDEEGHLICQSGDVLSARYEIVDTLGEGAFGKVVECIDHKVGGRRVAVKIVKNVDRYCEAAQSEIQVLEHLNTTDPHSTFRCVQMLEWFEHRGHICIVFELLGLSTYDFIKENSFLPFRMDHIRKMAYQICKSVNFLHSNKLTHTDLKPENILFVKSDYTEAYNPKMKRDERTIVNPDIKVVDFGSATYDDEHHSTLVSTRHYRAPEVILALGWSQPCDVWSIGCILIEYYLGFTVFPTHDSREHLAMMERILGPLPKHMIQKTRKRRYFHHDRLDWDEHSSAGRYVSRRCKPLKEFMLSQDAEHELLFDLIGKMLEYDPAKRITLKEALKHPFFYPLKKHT
Chain of Cholinesterase (Homo sapiens) (P06276 whole entry): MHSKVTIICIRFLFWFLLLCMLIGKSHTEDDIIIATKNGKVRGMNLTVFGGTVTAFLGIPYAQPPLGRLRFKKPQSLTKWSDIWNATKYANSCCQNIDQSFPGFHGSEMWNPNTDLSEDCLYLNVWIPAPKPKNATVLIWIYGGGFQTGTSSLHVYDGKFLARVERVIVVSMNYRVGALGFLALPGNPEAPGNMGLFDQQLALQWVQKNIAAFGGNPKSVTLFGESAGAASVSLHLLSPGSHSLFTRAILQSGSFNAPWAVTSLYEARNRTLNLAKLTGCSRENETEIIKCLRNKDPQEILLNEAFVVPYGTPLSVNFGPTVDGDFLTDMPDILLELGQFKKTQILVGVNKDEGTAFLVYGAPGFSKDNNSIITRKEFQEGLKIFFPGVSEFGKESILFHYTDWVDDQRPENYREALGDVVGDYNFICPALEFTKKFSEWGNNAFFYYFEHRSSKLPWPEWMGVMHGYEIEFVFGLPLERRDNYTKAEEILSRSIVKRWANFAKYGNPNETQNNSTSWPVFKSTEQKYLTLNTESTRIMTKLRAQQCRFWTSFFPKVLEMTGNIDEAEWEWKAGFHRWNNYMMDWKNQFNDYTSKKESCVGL

Compound | IC50 [2] | IC50 [3] | also measured
COc1cc(/C=C/C(=O)OCCOCCNC(=O)/C=C/c2ccc(OC(C)=O)c(OC(C)=O)c2)ccc1OC(C)=O |  |  | inhibition [1]: 95%
CN1C(=O)/C(=C2/SC(=S)N(N)C2=O)c2cc(Br)ccc21 | 770 nM | > 10000 nM | 
NN1C(=O)/C(=C2\C(=O)Nc3ccc(Br)cc32)SC1=S | 1800 nM | 4670 nM | 
CCCCCCCCCCCCCCCCOC(=O)C1=C(C)NC(C)=C(C(=O)OCCCCCCCCCCCCCCCC)C1c1ccccc1[N+](=O)[O-] |  |  | IC50 [4]: 2450 nM
COc1cc2c(cc1OC)CC(=O)N(CCCN(C)C[C@@H](O)COc1ccccc1C)CC2 |  |  | IC50 [5]: 10400 nM
